In patent publication US20230104936A1, “TRPML MODULATORS” (Casma Therapeutics, Inc., priority 2019, published 2023):

Test system: TFEB
Assay: TFEB nuclear translocation assay, HeLa wt cells
Type: cell-based
Details: 2 hrs compound treatment, Table 1 does not say HeLa wt or TRPML1 KO
Outline: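 Read-out is the ratio of TFEB immunofluorescence in the nucleus to that in a ring just outside it, measured by automated imaging. HeLa wt cells received compounds for 2 hrs at 37° C before fixation and staining; AC50 values come from this ratio.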

SMILES	AC50 (Homo sapiens, HeLa, 2 h)	AC50
CC(C)(C)C(=O)N1CCN(c2ccccc2NS(=O)(=O)c2ccc(C(C)(C)C(F)(F)F)cc2)CC1 [Compound A-572, N-{2-[4-(2,2-dimethylpropanoyl)piperazin-1-yl]phenyl}-4-(1,1,1-trifluoro-2-methylpropan-2-yl)benzene-1-sulfonamide]	2010 to 8000 nM	
CC(=O)N(C)C1(c2ccc(Cl)cc2F)CCN(c2ccccc2NS(=O)(=O)c2ccc(S(=O)(=O)N(C)C)cc2)CC1 [Compound A-172, N-[4-(4-chloro-2-fluorophenyl)-1-{2-[4-(dimethylsulfamoyl)benzenesulfonamido]phenyl}piperidin-4-yl]-N-methylacetamide]	2010 to 8000 nM	
COCC1(C)CCN(c2ccc(F)cc2NS(=O)(=O)c2ccc(S(=O)(=O)N(C)C)cc2)CC1 [Compound A-695, N4-{5-fluoro-2-[4-(methoxymethyl)-4-methylpiperidin-1-yl]phenyl}-N1,N1-dimethylbenzene-1,4-disulfonamide]	≤ 2000 nM	
CN(C)S(=O)(=O)c1ccc(S(=O)(=O)Nc2ccccc2N2CC(c3ccc(Cl)cc3)C2)cc1 [Compound A-56, N4-{2-[3-(4-chlorophenyl)azetidin-1-yl]phenyl}-N1,N1-dimethylbenzene-1,4-disulfonamide]	2010 to 8000 nM	
COCC1(C)CCN(c2ccccc2NS(=O)(=O)Cc2cccc(C#N)c2)CC1 [Compound A-581, 1-(3-cyanophenyl)-N-{2-[4-(methoxymethyl)-4-methylpiperidin-1-yl]phenyl}methanesulfonamide]	2010 to 8000 nM	
COCC1(C)CCN(c2ccccc2NS(=O)(=O)c2ccc(S(=O)(=O)N(C)C)cc2)C(C)C1 (stereo not drawn) [Compound A-745, N4-{2-[4-(methoxymethyl)-2,4-dimethylpiperidin-1-yl]phenyl}-N1,N1-dimethylbenzene-1,4-disulfonamide]	≥ 10000 nM	
Cc1ccc(S(=O)(=O)Nc2ccccc2N2CC=C(c3ccc(Cl)cn3)CC2)cc1 [Compound A-88, N-(2-{5-chloro-1′,2′,3′,6′-tetrahydro-[2,4′-bipyridin]-1′-yl}phenyl)-4-methylbenzene-1-sulfonamide]	2010 to 8000 nM	
COc1ccc(S(=O)(=O)Nc2ccccc2N2CCC(Oc3ccc(F)cc3F)C2)cc1 (stereo not drawn) [Compound A-202, N-{2-[3-(2,4-difluorophenoxy)pyrrolidin-1-yl]phenyl}-4-methoxybenzene-1-sulfonamide]	≥ 10000 nM	
Cc1ccc([S+]([O-])c2ccccc2N2CCC(c3ccc(Cl)cc3F)CC2)cc1 (stereo not drawn) [Compound A-144, 4-(4-chloro-2-fluorophenyl)-1-(2-(p-tolylsulfinyl)phenyl)piperidine]	≥ 10000 nM	
C=CP(=O)(C=C)c1ccccc1NS(=O)(=O)c1ccc(S(=O)(=O)N(C)C)cc1 [Compound A-227, N1-(2-(divinylphosphoryl)phenyl)-N4,N4-dimethylbenzene-1,4-disulfonamide]	≥ 10000 nM	
COC(=O)N1CCN(c2ccccc2NS(=O)(=O)c2ccc(S(=O)(=O)N(C)C)cc2)CC1 [Compound A-309, methyl 4-{2-[4-(dimethylsulfamoyl)benzenesulfonamido]phenyl}piperazine-1-carboxylate]	2010 to 8000 nM	
CN(C)S(=O)(=O)c1ccc(S(=O)(=O)Nc2ccccc2N2CCN(C(=O)C34CCCCC3C4)CC2)cc1 (stereo not drawn) [Compound A-487, N4-[2-(4-{bicyclo[4.1.0]heptane-1-carbonyl}piperazin-1-yl)phenyl]-N1,N1-dimethylbenzene-1,4-disulfonamide]	≤ 2000 nM	
CN(C)S(=O)(=O)c1ccc(S(=O)(=O)Nc2cccc(Cl)c2N2CCOCC2)nc1 [Compound A-340, N2-[3-chloro-2-(morpholin-4-yl)phenyl]-N5,N5-dimethylpyridine-2,5-disulfonamide]	≥ 10000 nM	
C[C@@H]1CN(CC2(F)CCN(c3c(F)cccc3NS(=O)(=O)c3ccc(S(=O)(=O)N(C)C)cc3)CC2)C[C@H](C)O1 [Compound A-794, N4-[2-(4-{[(2R,6S)-2,6-dimethylmorpholin-4-yl]methyl}-4-fluoropiperidin-1-yl)-3-fluorophenyl]-N1,N1-dimethylbenzene-1,4-disulfonamide]	≤ 2000 nM	
COc1ccc(S(=O)(=O)Nc2ccccc2N2CCC(N(C)c3ccc(F)cc3F)C2)cc1 (stereo not drawn) [Compound A-201, N-(2-{3-[(2,4-difluorophenyl)(methyl)amino]pyrrolidin-1-yl}phenyl)-4-methoxybenzene-1-sulfonamide]	2010 to 8000 nM	
CN(C)S(=O)(=O)c1ccc(S(=O)(=O)Nc2ccccc2N2CCC(C(F)(F)F)CC2)cc1 [Compound A-550, N1,N1-dimethyl-N4-{2-[4-(trifluoromethyl)piperidin-1-yl]phenyl}benzene-1,4-disulfonamide]	≤ 2000 nM	
CN(C)S(=O)(=O)c1ccc([S+]([O-])Cc2ccccc2N2CCC(c3ccc(Cl)cc3F)CC2)cc1 (stereo not drawn) [Compound A-190, 4-((2-(4-(4-chloro-2-fluorophenyl)piperidin-1-yl)benzyl)sulfinyl)-N,N-dimethylbenzenesulfonamide]	≤ 2000 nM	

SMILES	AC50 (Homo sapiens, HeLa, 2 h)	AC50
CS(=O)(=O)c1ccc(S(=O)(=O)Nc2ccccc2N2CCC3(CC2)CN(CC2CCOC2)c2cc(F)ccc23)cc1 (stereo not drawn) [Compound A-423, N-(2-{6-fluoro-1-[(oxolan-3-yl)methyl]-1,2-dihydrospiro[indole-3,4′-piperidin]-1′-yl}phenyl)-4-methanesulfonylbenzene-1-sulfonamide]	≤ 2000 nM	
CC(C)Oc1ccc(S(=O)(=O)Nc2cccc(Cl)c2N2CCOCC2)cc1 [Compound A-457, N-[3-chloro-2-(morpholin-4-yl)phenyl]-4-(propan-2-yloxy)benzene-1-sulfonamide]	2010 to 8000 nM	
C[C@H]1COC[C@H](C)N1CC1CCN(c2c(F)cccc2NS(=O)(=O)c2ccc(S(=O)(=O)N(C)C)cc2)CC1 (racemic) [Compound A-763, N4-(2-{4-[(3,5-dimethylmorpholin-4-yl)methyl]piperidin-1-yl}-3-fluorophenyl)-N1,N1-dimethylbenzene-1,4-disulfonamide]	≤ 2000 nM	
CN1CC2(CCN(c3ccccc3NS(=O)(=O)c3ccc(S(=O)(=O)N(C)C)cc3)CC2)c2ncc(Cl)cc21 [Compound A-268, N4-(2-{6′-chloro-1′-methyl-1′,2′-dihydrospiro[piperidine-4,3′-pyrrolo[3,2-b]pyridin]-1-yl}phenyl)-N1,N1-dimethylbenzene-1,4-disulfonamide]	≤ 2000 nM	
COCC1(C)CCN(c2ccccc2C(C)S(=O)(=O)c2ccc(S(=O)(=O)N(C)C)cc2)CC1 (single isomer, unassigned; enantiomer 1) [Compound A-698, 4-((1-(2-(4-(methoxymethyl)-4-methylpiperidin-1-yl)phenyl)ethyl)sulfonyl)-N,N-dimethylbenzenesulfonamide, enantiomer 1]	≤ 2000 nM	
COCC1(C)CCN(c2ccccc2NS(=O)(=O)c2ccc(S(C)(=O)=O)c(F)c2)CC1 [Compound A-731, 3-fluoro-4-methanesulfonyl-N-{2-[4-(methoxymethyl)-4-methylpiperidin-1-yl]phenyl}benzene-1-sulfonamide]	≥ 10000 nM	
COCC1(C)CCN(c2ccccc2C(C)S(=O)(=O)c2ccc(S(=O)(=O)N(C)C)cc2)CC1 (stereo not drawn) [Compound A-491, 4-(1-{2-[4-(methoxymethyl)-4-methylpiperidin-1-yl]phenyl}ethanesulfonyl)-N,N-dimethylbenzene-1-sulfonamide]	≤ 2000 nM	
COc1ccc(S(=O)(=O)Nc2ccccc2N2CCC(c3ccc(F)cc3F)CC2)cn1 [Compound A-123, N-{2-[4-(2,4-difluorophenyl)piperidin-1-yl]phenyl}-6-methoxypyridine-3-sulfonamide]	2010 to 8000 nM	
CN(C)S(=O)(=O)c1ccc(S(=O)(=O)Nc2cccc(F)c2N2CCC(N3CCC4(CCOC4)C3)CC2)cc1 (single isomer, unassigned) [Compound A-910, N1-(2-(4-(2-oxa-7-azaspiro[4.4]nonan-7-yl)piperidin-1-yl)-3-fluorophenyl)-N4,N4-dimethylbenzene-1,4-disulfonamide]		2010 to 8000 nM
CC1(C)CC2(CCN(c3ccccc3NS(=O)(=O)C3(c4ccccc4)CC3)CC2)CO1 [Compound A-717, N-(2-{3,3-dimethyl-2-oxa-8-azaspiro[4.5]decan-8-yl}phenyl)-1-phenylcyclopropane-1-sulfonamide]	2010 to 8000 nM	
C[C@H](c1cccc(F)c1N1CCC(F)(F)CC1)S(=O)(=O)c1ccc(S(=N)(=O)N(C)C)cc1 (single isomer, unassigned) [Compound A-890]		2010 to 8000 nM
CC(N1CCN(c2ccccc2NS(=O)(=O)c2ccc(Cl)cc2)CC1)C(F)(F)F (stereo not drawn) [Compound A-541, 4-chloro-N-{2-[4-(1,1,1-trifluoropropan-2-yl)piperazin-1-yl]phenyl}benzene-1-sulfonamide]	≤ 2000 nM	
Cc1ccc(S(=O)(=O)Nc2ccccc2N2CCC3(CC2)CN(C)c2cc(F)ccc23)cc1 [Compound A-245, N-(2-{6-fluoro-1-methyl-1,2-dihydrospiro[indole-3,4′-piperidin]-1′-yl}phenyl)-4-methylbenzene-1-sulfonamide]	≤ 2000 nM	
CC(c1ccccc1N1CCN(Cc2ccccc2)CC1)S(=O)(=O)c1ccc(S(=O)(=O)N(C)C)cc1 (stereo not drawn) [Compound A-465, 4-((1-(2-(4-benzylpiperazin-1-yl)phenyl)ethyl)sulfonyl)-N,N-dimethylbenzenesulfonamide]	≤ 2000 nM	
CC1Cc2cc(S(=O)(=O)Nc3ccccc3N3CCN(C(=O)C(C)(C)C)CC3)ccc2O1 (stereo not drawn) [Compound A-530, N-{2-[4-(2,2-dimethylpropanoyl)piperazin-1-yl]phenyl}-2-methyl-2,3-dihydro-1-benzofuran-5-sulfonamide]	2010 to 8000 nM	
CC(c1cccc(F)c1N1CCC2(CC1)COC(C)(C)C2)S(=O)(=O)c1ccc(S(=O)(=O)N(C)C)cc1 (stereo not drawn) [Compound A-752, 4-[1-(2-{3,3-dimethyl-2-oxa-8-azaspiro[4.5]decan-8-yl}-3-fluorophenyl)ethanesulfonyl]-N,N-dimethylbenzene-1-sulfonamide]	≤ 2000 nM	
